Data: patent US10456407B2, “Combination therapy for treating cancer” (Epizyme, Inc., priority 2015, dated 2019)

What was measured:
Type in all cases: cell-based
SU-DHL10 cells = assay: RT2 Glucocorticoid signaling PCR array, SU-DHL10 (SUDHL10) cell line (Table 4d); conditions: SUDHL10, 4 days, vs DMSO
Source text: Expression levels of (A). Sestrin; (B). TNF and (C) GILZ normalized to DMSO controls for each cell line with the indicated single agent or combination.

SU-DHL4 cells = assay: RT2 Glucocorticoid signaling PCR array, SU-DHL4 (SUDHL4) cell line (Table 4f); conditions: SUDHL4, 4 days, vs DMSO
OCI-Ly19 cells = assay: RT2 Glucocorticoid signaling PCR array, OCI-LY19 (Table 4a, printed OCT) cell line; conditions: vs DMSO

Q: `CCN(c1cc(-c2ccc(CN3CCOCC3)cc2)cc(C(=O)NCc2c(C)cc(C)[nH]c2=O)c1C)C1CCOCC1` [Compound 44] was tested. Which “ADARB1 ΔΔCT” value (SU-DHL10 cells) did it give?
A: 0.073

Q: And the “AK2 ΔΔCT” value (SU-DHL10 cells)?
A: −0.101

Q: And the “ARIDS8 ΔΔCT” value (SU-DHL10 cells)?
A: 0.650

Q: What about the “ASPH ΔΔCT” value (SU-DHL10 cells) of the same compound?
A: 0.296

Q: And the “CEBPA ΔΔCT” value (SU-DHL10 cells)?
A: −1.026

Q: And the “DDIT4 ΔΔCT” value (SU-DHL10 cells)?
A: 1.444

Q: And the “H6PD ΔΔCT” value (SU-DHL10 cells)?
A: 1.221

Q: And the “LOX ΔΔCT” value (SU-DHL10 cells)?
A: 1.164

Q: What about the “NR3C1 ΔΔCT” value (SU-DHL10 cells) of the same compound?
A: 0.527

Q: And the “PER2 ΔΔCT” value (SU-DHL10 cells)?
A: 0.441

Q: And the “SPHK1 ΔΔCT” value (SU-DHL10 cells)?
A: 0.231

Q: And the “STAT5B ΔΔCT” value (SU-DHL10 cells)?
A: 0.027

Q: What about the “TNF ΔΔCT” value (SU-DHL10 cells) of the same compound?
A: −0.204

Q: What about the “VDR ΔΔCT” value (SU-DHL10 cells) of the same compound?
A: −0.714

Q: What about the “ΔΔCT MERTK” value (SU-DHL4 cells) of the same compound?
A: 1.977

Q: And the “ΔΔCT, ADARB1” value (SU-DHL4 cells)?
A: −1.229

Q: What about the “ΔΔCT, AFF1” value (SU-DHL4 cells) of the same compound?
A: −0.276

Q: What about the “ΔΔCT, AMPD3” value (SU-DHL4 cells) of the same compound?
A: −1.449

Q: And the “ΔΔCT, ANGPTL4” value (SU-DHL4 cells)?
A: −1.331

Q: What about the “ΔΔCT, ANXA4” value (SU-DHL4 cells) of the same compound?
A: −2.419

Q: And the “ΔΔCT, AQP1” value (SU-DHL4 cells)?
A: 0.331

Q: What about the “ΔΔCT, ARID68” value (SU-DHL4 cells) of the same compound?
A: −0.541

Q: And the “ΔΔCT, ASPH” value (SU-DHL4 cells)?
A: −0.843

Q: What about the “ΔΔCT, ATF4” value (SU-DHL4 cells) of the same compound?
A: 0.146

Q: What about the “ΔΔCT, CEBPA” value (SU-DHL4 cells) of the same compound?
A: −2.510

Q: What about the “ΔΔCT, CREB1” value (SU-DHL4 cells) of the same compound?
A: −0.313

Q: And the “ΔΔCT, CREB3” value (SU-DHL4 cells)?
A: −0.490

Q: And the “ΔΔCT, CREB3L4” value (SU-DHL4 cells)?
A: −0.655

Q: What about the “ΔΔCT, CYB561” value (SU-DHL4 cells) of the same compound?
A: −4.236

Q: What about the “ΔΔCT, EHD3” value (SU-DHL4 cells) of the same compound?
A: −1.998

Q: And the “ΔΔCT, FK8PS” value (SU-DHL4 cells)?
A: 0.008

Q: What about the “ΔΔCT, GDPD1” value (SU-DHL4 cells) of the same compound?
A: −1.356

Q: What about the “ΔΔCT, GOT1” value (SU-DHL4 cells) of the same compound?
A: 0.065

Q: And the “ΔΔCT, H6PD” value (SU-DHL4 cells)?
A: −0.549

Q: And the “ΔΔCT, HNRPLL” value (SU-DHL4 cells)?
A: −0.471

Q: What about the “ΔΔCT, IL6R” value (SU-DHL4 cells) of the same compound?
A: −1.903

Q: And the “ΔΔCT, IL10” value (SU-DHL4 cells)?
A: −1.895

Q: And the “ΔΔCT, KLF9” value (SU-DHL4 cells)?
A: −1.293

Q: And the “ΔΔCT, KLF13” value (SU-DHL4 cells)?
A: −0.534

Q: And the “ΔΔCT, MT2A” value (SU-DHL4 cells)?
A: −0.309

Q: And the “ΔΔCT, NR3C1” value (SU-DHL4 cells)?
A: −0.234

Q: What about the “ΔΔCT, PDCD7” value (SU-DHL4 cells) of the same compound?
A: −0.127

Q: What about the “ΔΔCT, PER1” value (SU-DHL4 cells) of the same compound?
A: −0.524

Q: What about the “ΔΔCT, PER2” value (SU-DHL4 cells) of the same compound?
A: −0.854

Q: What about the “ΔΔCT, PIK3R1” value (SU-DHL4 cells) of the same compound?
A: −0.502

Q: What about the “ΔΔCT, PLEKHF1” value (SU-DHL4 cells) of the same compound?
A: −1.254

Q: What about the “ΔΔCT, POU2F1” value (SU-DHL4 cells) of the same compound?
A: −0.575

Q: And the “ΔΔCT, RGS2” value (SU-DHL4 cells)?
A: −0.632

Q: And the “ΔΔCT, RHOB” value (SU-DHL4 cells)?
A: −1.561

Q: What about the “ΔΔCT, SESN1” value (SU-DHL4 cells) of the same compound?
A: −2.258

Q: And the “ΔΔCT, SLC10A6” value (SU-DHL4 cells)?
A: −4.180

Q: And the “ΔΔCT, SLC19A2” value (SU-DHL4 cells)?
A: −1.612

Q: And the “ΔΔCT, SLC22A5” value (SU-DHL4 cells)?
A: −0.775

Q: And the “ΔΔCT, SNTA1” value (SU-DHL4 cells)?
A: −0.847

Q: What about the “ΔΔCT, SPSB1” value (SU-DHL4 cells) of the same compound?
A: −0.624

Q: And the “ΔΔCT, STAT5B” value (SU-DHL4 cells)?
A: −0.298

Q: And the “ΔΔCT, TBL1XR1” value (SU-DHL4 cells)?
A: −0.456

Q: And the “ΔΔCT, TNFAIP3” value (SU-DHL4 cells)?
A: 0.339

Q: And the “ΔΔCT, TSC22D3” value (SU-DHL4 cells)?
A: −0.002

Q: What about the “ΔΔCT, USP2” value (SU-DHL4 cells) of the same compound?
A: −0.688

Q: What about the “ΔΔCT, USPS4” value (SU-DHL4 cells) of the same compound?
A: 6.193

Q: And the “ΔΔCT, ZFP36” value (SU-DHL4 cells)?
A: −0.262

Q: What about the “ΔΔCT, ZHX3” value (SU-DHL4 cells) of the same compound?
A: −1.047

Q: And the “ΔΔCT, ADARB1” value (OCI-Ly19 cells; gene ADARB1)?
A: −0.789

Q: And the “ΔΔCT, AK2” value (OCI-Ly19 cells; gene AK2)?
A: −0.017

Q: And the “ΔΔCT, ANGPTL4” value (OCI-Ly19 cells; gene ANGPTL4)?
A: −0.305

Q: What about the “ΔΔCT, ARID68” value (OCI-Ly19 cells; gene ARID68) of the same compound?
A: 0.232

Q: And the “ΔΔCT, ASPH” value (OCI-Ly19 cells; gene ASPH)?
A: −0.584
